Measurements as given in the supplement of paper PMC10307832.

How the values were obtained:
Assay in all cases: relative viability (nuclei count vs DMSO), 5 days (fraction); higher = more cells survive
BX 795 + Pictilisib = compound: O=C(NCCCNc1nc(Nc2cccc(NC(=O)N3CCCC3)c2)ncc1I)c1cccs1 [BX 795] + CS(=O)(=O)N1CCN(Cc2cc3nc(-c4cccc5[nH]ncc45)nc(N4CCOCC4)c3s2)CC1 [Pictilisib] (partner 1 µM)
How it was run: (§1)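 A single step with final 0.05% Triton X-100, 1% formaldehyde and 1 ug/ml Hoechst fixed the cells and stained nuclei 5 days after treatment. Lung cancer cell lines in 1536-well plates had been treated by pin tool the day after seeding with one drug alone or a fixed anchor-drug dose plus five library-drug doses (not always all listed) in √10 steps, and nuclei were counted on 4× images. Relative viability is the ratio of nuclei in treated wells to nuclei in vehicle wells, taken as the median of duplicate plates.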

BX 795 + Crizotinib = compound: O=C(NCCCNc1nc(Nc2cccc(NC(=O)N3CCCC3)c2)ncc1I)c1cccs1 [BX 795] + C[C@@H](Oc1cc(-c2cnn(C3CCNCC3)c2)cnc1N)c1c(Cl)ccc(F)c1Cl [Crizotinib] (partner 1 µM)
How it was run: as §1

BX 795 + Dasatinib = compound: O=C(NCCCNc1nc(Nc2cccc(NC(=O)N3CCCC3)c2)ncc1I)c1cccs1 [BX 795] + Cc1nc(Nc2ncc(C(=O)Nc3c(C)cccc3Cl)s2)cc(N2CCN(CCO)CC2)n1 [Dasatinib] (partner 0.075 µM)
How it was run: as §1

BX 795 + Phenformin = compound: O=C(NCCCNc1nc(Nc2cccc(NC(=O)N3CCCC3)c2)ncc1I)c1cccs1 [BX 795] + N=C(N)NC(=N)NCCc1ccccc1 [Phenformin] (partner 250 µM)
How it was run: as §1

BX 795 + Vorinostat = compound: O=C(NCCCNc1nc(Nc2cccc(NC(=O)N3CCCC3)c2)ncc1I)c1cccs1 [BX 795] + O=C(CCCCCCC(=O)Nc1ccccc1)NO [Vorinostat] (partner 1 µM)
How it was run: as §1

| Cell Line | relative viability (BX 795 + Pictilisib; first compound 0.04 µM) | relative viability (BX 795 + Pictilisib; first compound 0.1265 µM) | relative viability (BX 795 + Pictilisib; first compound 0.4 µM) | relative viability (BX 795 + Pictilisib; first compound 1.265 µM) | relative viability (BX 795 + Crizotinib; first compound 0.04 µM) | relative viability (BX 795 + Crizotinib; first compound 0.1265 µM) | relative viability (BX 795 + Crizotinib; first compound 0.4 µM) | relative viability (BX 795 + Crizotinib; first compound 1.265 µM) | relative viability (BX 795 + Dasatinib; first compound 0.04 µM) | relative viability (BX 795 + Dasatinib; first compound 0.1265 µM) | relative viability (BX 795 + Dasatinib; first compound 0.4 µM) | relative viability (BX 795 + Dasatinib; first compound 1.265 µM) | relative viability (BX 795 + Phenformin; first compound 0.04 µM) | relative viability (BX 795 + Phenformin; first compound 0.1265 µM) | relative viability (BX 795 + Phenformin; first compound 0.4 µM) | relative viability (BX 795 + Phenformin; first compound 1.265 µM) | relative viability (BX 795 + Vorinostat; first compound 0.04 µM) | relative viability (BX 795 + Vorinostat; first compound 0.1265 µM) | relative viability (BX 795 + Vorinostat; first compound 0.4 µM) | relative viability (BX 795 + Vorinostat; first compound 1.265 µM) |
| --- | --- | --- | --- | --- | --- | --- | --- | --- | --- | --- | --- | --- | --- | --- | --- | --- | --- | --- | --- | --- |
| HCC-366 | 0.145 | 0.137 | 0.104 | 0.0928 | 0.541 | 0.616 | 0.188 | 0.313 | 0.757 | 0.73 | 0.498 | 0.631 | 0.622 | 0.629 | 0.602 | 0.583 | 0.311 | 0.295 | 0.224 | 0.0717 |
| HCC-827 | 1.13 | 1.02 | 1.12 | 0.961 | 0.935 | 0.923 | 0.892 | 0.712 | 0.334 | 0.375 | 0.307 | 0.414 | 0.448 | 0.372 | 0.414 | 0.387 | 0.756 | 0.689 | 0.901 | 0.79 |
| HOP-62 | 0.803 | 0.586 | 0.682 | 0.66 | 1.04 | 0.953 | 1.13 | 0.941 | 0.659 | 0.797 | 0.668 | 0.576 | 0.711 | 0.744 | 0.789 | 0.667 | 0.807 | 0.638 | 0.546 | 0.456 |
| IA-LM | 0.367 | 0.311 | 0.531 | 0.332 | 0.78 | 0.936 | 1.32 | 0.546 | – | – | – | – | – | – | – | – | 0.79 | 1.06 | 0.992 | 0.892 |
| LC-2-ad | 0.471 | 0.387 | 0.333 | 0.202 | 0.558 | 0.316 | 0.325 | 0.402 | 0.416 | 0.497 | 0.391 | 0.285 | 0.585 | 0.5 | 0.48 | 0.41 | 0.755 | 0.759 | 0.595 | 0.37 |
| LCLC-97TM1 | 0.186 | 0.163 | 0.206 | 0.137 | 0.475 | 0.431 | 0.306 | 0.209 | 0.719 | 0.888 | 0.764 | 0.76 | 0.495 | 0.444 | 0.457 | 0.348 | 0.774 | 0.725 | 0.768 | 0.468 |
| LCLC-103H | 0.577 | 0.674 | 0.596 | 0.643 | 0.979 | 1.1 | 1.01 | 1.04 | 0.55 | 0.481 | 0.553 | 0.412 | 0.301 | 0.327 | 0.355 | 0.298 | 0.675 | 0.811 | 0.699 | 0.695 |
| LK-2 | 0.622 | 0.556 | 0.47 | 0.557 | 0.238 | 0.171 | 0.21 | 0.193 | 0.35 | 0.201 | 0.291 | 0.304 | 0.501 | 0.485 | 0.503 | 0.444 | 0.398 | 0.37 | 0.286 | 0.239 |
| LOU-NH91 | 0.509 | 0.507 | 0.541 | 0.5 | 0.768 | 0.721 | 0.715 | 0.796 | 0.63 | 0.662 | 0.583 | 0.564 | 0.861 | 0.713 | 0.658 | 0.697 | 0.846 | 0.955 | 0.842 | 0.903 |
| LU99A | 0.384 | 0.317 | 0.329 | 0.252 | 0.646 | 0.593 | 0.455 | 0.361 | 0.78 | 0.571 | 0.472 | 0.364 | 0.875 | 0.741 | 0.915 | 0.53 | 0.472 | 0.485 | 0.37 | 0.363 |
| LXF-289 | 0.844 | 0.77 | 0.879 | 0.649 | 0.86 | 0.82 | 0.778 | 0.47 | 0.209 | 0.28 | 0.185 | 0.15 | 0.464 | 0.529 | 0.582 | 0.467 | 0.838 | 0.719 | 0.811 | 0.674 |
| NCI-H23 | 0.515 | 0.504 | 0.41 | 0.391 | 0.459 | 0.503 | 0.374 | 0.257 | 0.871 | 0.8 | 0.507 | 0.884 | 0.803 | 0.825 | 0.794 | 0.782 | 0.583 | 0.651 | 0.376 | 0.285 |
| NCI-H1395 | 0.673 | 0.562 | 0.461 | 0.533 | – | – | – | – | 0.368 | 0.435 | 0.397 | 0.32 | 0.471 | 0.462 | 0.458 | 0.431 | 0.574 | 0.624 | 0.404 | 0.516 |
| NCI-H1563 | 0.689 | 0.522 | 0.659 | 0.673 | 0.852 | 0.849 | 0.82 | 0.617 | 0.476 | 0.429 | 0.439 | 0.405 | 0.679 | 0.641 | 0.744 | 0.567 | – | – | – | – |
| NCI-H1792 | 0.286 | 0.269 | 0.24 | 0.191 | 1.01 | 1.08 | 1.09 | 0.892 | 0.792 | 0.764 | 0.821 | 0.664 | 0.431 | 0.463 | 0.216 | 0.178 | – | – | – | – |
| NCI-H1793 | 0.399 | 0.333 | 0.333 | 0.257 | – | – | – | – | 0.408 | 0.403 | 0.361 | 0.356 | 0.358 | 0.35 | 0.366 | 0.289 | 0.888 | 0.753 | 0.803 | 0.293 |
| SW 900 | – | – | – | – | – | – | – | – | 0.737 | 0.541 | 0.414 | 0.259 | 0.478 | 0.627 | 0.613 | 0.693 | 0.482 | – | 0.611 | 0.604 |
